{
  "source": "PubChem BioAssay AID1999",
  "about": "(Broad Institute, 2009)",
  "tested_on": "H4 cells, PrP 5'UTR luciferase reporter, luminescence",
  "assay": "activators of PrP 5'UTR-driven reporter translation, dose response, luminescence (AID 1999)",
  "note": "Results filed as inconclusive are left out. Activity calls are given as the source filed them. How the calls were made is not given here.",
  "data": [
    {"smiles": "C#CCOCCOCCOCCNc1nc(N2CCN(C(=O)CCCCCCCCCCNC(=O)[C@H](CCCCN)n3cc(CCCC(=O)O)nn3)CC2)nc(N2CCN(C(=O)CCCCCCCCCCNC(=O)[C@H](CCCN=C(N)N)n3cc(C[C@@H](C)CC)nn3)CC2)n1", "values": [
      {"measurement": "EC50", "result": "> 12 µM (inactive)"}
    ]}
  ]
}
